Reference: patent US20250345512A1, “COMBINATION SODIUM-GLUCOSE COTRANSPORTER INHIBITOR (SGLTI) INSULIN THERAPY FOR GLYCEMIC CONTROL IN TYPE 1 DIABETES” (University of Virginia Patent Foundation, priority 2022, published 2025)

Test system: participants with T1D
Assay: Randomized crossover clinical trial (NCT04201496): CGM glycemic outcomes with 5 mg daily empagliflozin adjunctive to AID (Control-IQ, CIQ) or PLGS (Basal-IQ, BIQ)
Format: in vivo, human
Protocol: FIG. 2 presents a study analysis relative to baseline, control IQ (CIQ) (e.g., AID), and basal IQ (BIQ) (e.g., PLGS) implementation, according to investigation that is demonstrable of one or more embodiments herein. Therein, an experimental arm (G1, G2) providing an initial daily dose of 5 mg empagliflozin (EMPA) is depicted against a control arm (G3, G4) without such dosing (NOEMPA). Relative characteristics of the analysis are provided below.
Study Design: A single-center, randomized, controlled, unblinded, crossover clinical trial (NCT04201496) compared four parallel groups, two groups in the experimental arm (EMPA) with 5 mg daily empagliflozin as adjunctive therapy to PLGS or AID, and two groups in the control arm (NOEMPA) with no drug and with a PLGS system (Basal-IQ, Tandem Diabetes Care) or AID system (Control-IQ, Tandem Diabetes Care). The groups within each arm differed from one another in the order of the randomly assigned crossover technological intervention, relative to PLGS being followed by AID or AID being followed by PLGS, respectively (FIG. 4). The study protocol was approved by the University of Virginia Institutional Review Board (IRB). An investigational device exemption (IDE), including an investigational new drug (IND) application for empagliflozin, was approved by the FDA. Safety aspects were overseen by an external data and safety monitoring board (DSMB). Participants: Major inclusion criteria were T1D treated with insulin for at least one year, use of continuous subcutaneous insulin infusion therapy for at least six months, age 18-65 yrs., no use of glucose lowering agents other than insulin, and Hb1Ac<9% (75 mmol/mol). Randomization: A (1:1:1:1) randomization assigned participants to either Group 1, AID-EMPA (4 weeks) followed by PLGS-EMPA (2 weeks), Group 2, PLGS-EMPA (2 weeks) followed by AID-EMPA (4 weeks), Group 3, AID-NOEMPA (4 weeks) followed by PLGS-NOEMPA (2 weeks), and Group 4, PLGS-NOEMPA (2 weeks) followed by AID-NOEMPA (4 weeks). Procedures: After confirmation of eligibility, participants underwent study equipment and medication training (experimental arm), or only study equipment training (control arm). Study equipment consisted of Dexcom G6® CGM (Dexcom Inc., San Diego, CA), Contour® Next blood glucose (Ascensia Diabetes Care, Basel, Switzerland) and Precision Xtra® blood ketone meters (Abbott, Alameda, CA) with their respective test strips; infusion sets, and the use of the t:slim X2™ insulin pump with Basal-IQ or Control-IQ technologies (Tandem Diabetes Care, San Diego, CA), according to randomization. […] Participants in the experimental arm were asked to record two days of baseline ketone values before initiating the use of the study drug. Thereafter, participants were directed to use the study CGM with EMPA for 1-2 weeks. A tolerance to the medication was assessed prior to the starting of the next study phase, including adherence to the protocol, ketone testing 2-4 times per day with monitored values not greater than 0.6 mmol/L on at least two successive occasions (the first testing upon waking in a fasted state), no adverse events relating to perineal infection or symptomatic postural hypotension, and no evidence of significant hypoglycemia <54 mg/dL, or any other listed adverse effects of the medication. Participants in the control arm were directed to use the study CGM for 1-2 weeks. Sample Size: The total sample size was projected to be 40 participants, assuming 1) 1:1:1:1 randomization; 2) 90% power and type 1 error a=0.01, further reinforcing the feasibility of hierarchical analyses. The projected recruitment sample was n=50, to accommodate up to 20% attrition rate without sacrificing statistical power. Analytical methods: For the primary analysis, TIR during the day in the 4-week AID period was compared between the two EMPA groups versus the two NOEMPA groups using a linear mixed-effects regression model while adjusting for pre-randomization HbAlc and age. […]

[1] = EMPA minus NOEMPA on same insulin system, adjusted for HbA1c
[2] = daytime (7:00-23:00), CIQ-EMPA vs. BIQ-NOEMPA, BIQ-EMPA vs. CIQ-NOEMPA
[3] = daytime (7:00-23:00), CIQ-EMPA vs. CIQ-NOEMPA, BIQ-EMPA vs. BIQ-NOEMPA
[4] = daytime (7:00-23:00), n = 16, mean ± SD
[5] = daytime (7:00-23:00), n = 16, median (IQR)

OC[C@H]1O[C@@H](c2ccc(Cl)c(Cc3ccc(O[C@H]4CCOC4)cc3)c2)[C@H](O)[C@@H](O)[C@@H]1O [BIQ-EMPA, empagliflozin]
24/7 HBGI - median (IQR) (24/7, n = 17): 3.3(1.8-4.7)
24/7 LBGI - median (IQR) (24/7, n = 17): 0.7(0.6-1)
24/7 glucose level <70 mg/dL (<3.9 mmol/L) - median % time (IQR) (24/7, n = 17): 1.7(0.9-2.7) %
24/7 Mean glucose level - (24/7, n = 17, mean ± SD): 141 ± 30 mg/dL
Difference (95% CI): 24/7 HBGI [1]: −3.7(−6.5 to −1)
Difference (95% CI): 24/7 LBGI [1]: 0.1(−0.3 to 0.6)
Difference (95% CI): 24/7 Mean glucose level [1]: −24.1(−42.2 to −6) mg/dL
Difference (95% CI): 24/7 glucose level <70 mg/dL % time [1]: 0.2(−1.7 to 2.1) percentage points
Difference (95% CI): Daytime CGM CV [1]: −4.0(−6.8 to −1.2) %
Difference (95% CI): Daytime CGM SD [1]: −13.2(−21.6 to −4.8) mg/dL
Difference (95% CI): daytime glucose % Time in range of 70 to 180 mg/dL (EMPA minus NOEMPA on same insulin system, adjusted for pre-randomization HbA1c): 16.5(7.3 to 26) ^ percentage points
Primary: daytime glucose % Time in range of 70 to 180 mg/dL (3.9-10.0 mmol/L) (daytime 7:00 to 23:00 h, n = 17, mean ± SD): 80 ± 14%
Difference (95% CI): % CGM time <50 mg/dL (<2.8 mmol/L) [2]: −0.3 percentage points
Difference (95% CI): % CGM time <60 mg/dL (<3.3 mmol/L) [2]: −0.2 percentage points
Difference (95% CI): % CGM time >180 mg/dL (>10.0 mmol/L) [2]: −9.5 percentage points
Difference (95% CI): % CGM time >250 mg/dL (>13.9 mmol/L) [2]: −2.2 percentage points
Difference (95% CI): % CGM time >300 mg/dL (>16.7 mmol/L) [2]: −0.4 percentage points
Difference (95% CI): CGM HBGI [2]: −1.9
Difference (95% CI): CGM LBGI [2]: 0.3
Difference (95% CI): CGM SD [2]: -7.1 mg/dL
Difference (95% CI): Mean CGM glucose [2]: -14.9 mg/dL
Difference (95% CI): % CGM time 70-140 mg/dL (<3.9-7.8 mmol/L) [3]: 17.6 percentage points
Difference (95% CI): % CGM time >180 mg/dL (>10.0 mmol/L) [3]: −16.7 percentage points
Difference (95% CI): % CGM time >250 mg/dL (>13.9 mmol/L) [3]: −7.6 percentage points
Difference (95% CI): % CGM time >300 mg/dL (>16.7 mmol/L) [3]: −2.7 percentage points
Difference (95% CI): CGM HBGI [3]: −4
Difference (95% CI): CGM LBGI [3]: −0.3
Difference (95% CI): CGM SD [3]: -13.2 mg/dL
Difference (95% CI): Mean CGM glucose [3]: -23.8 mg/dL
Difference (95% CI): % CGM time <70-180 mg/dL (3.9-10.0 mmol/L) (daytime (7:00-23:00), CIQ-EMPA vs. CIQ-NOEMPA, BIQ-EMPA vs. BIQ-NOEMPA, listed as PLGS-EMPA): 16 percentage points
% CGM time 70-140 mg/dL (3.9-7.8 mmol/L) [4]: 58.1 ± 16.5%
% CGM time 70-180 mg/dL (3.9-10.0 mmol/L) [4]: 80 ± 14.5%
CGM CV (%) [4]: 35.7 ± 3.5%
CGM SD [4]: 45 ± 14.6 mg/dL
Mean CGM glucose [4]: 139 ± 26 mg/dL
% CGM time 70-180 mg/dL (3.9-10.0 mmol/L) (daytime (7:00-23:00), n = 16, mean ± SD, listed as PLGS-EMPA): 80±14.5%
% CGM time <50 mg/dL (<2.8 mmol/L) [5]: 0(0-0.4) %
% CGM time <60 mg/dL (<3.3 mmol/L) [5]: 0.5(0.1-0.9) %
% CGM time <70 mg/dL (<3.9 mmol/L) [5]: 1.7(0.9-2.7) %
% CGM time >180 mg/dL (>10.0 mmol/L) [5]: 11.3(5.3-22.4) %
% CGM time >250 mg/dL (>13.9 mmol/L) [5]: 1.7(0.1-4.4) %
% CGM time >300 mg/dL (>16.7 mmol/L) [5]: 0.1(0-0.8) %
CGM HBGI [5]: 2.8(1.6-4.9)
CGM LBGI [5]: 0.7(0.6-0.9)
Daytime CGM CV - % (daytime, n = 17, mean ± SD): 30.4 ± 3.5%
Daytime CGM SD - (daytime, n = 17, mean ± SD): 44.9 ± 14.7 mg/dL
Difference: CGM HBGI (overall, CIQ-EMPA vs. BIQ-NOEMPA, BIQ-EMPA vs. CIQ-NOEMPA): −1.6
